Reference: the supplement of paper PMC13207355

Tests used:
Details in all cases: exposure time: 72 h
E28 [1] = patient-derived glioblastoma stem cells of classical subtype; experiment: surviving fraction (nuclei count normalised to DMSO); higher = more cells surviving (less toxic)
E34 [2] = patient-derived glioblastoma stem cells of proneural subtype; experiment: as above
E13 [3] = patient-derived glioblastoma stem cells of classical subtype; experiment: as above
E21 [4] = patient-derived glioblastoma stem cells of mesenchymal subtype; experiment: as above
E57 [5] = patient-derived glioblastoma stem cells of mesenchymal subtype; experiment: as above
FT3469 [6] = normal neural stem cell line; experiment: as above
E31 [7] = patient-derived glioblastoma stem cells of proneural subtype; experiment: as above
E28 [8] = experiment: phenotypic distance (Euclidean, principal components) from DMSO controls (arbitrary units); higher = stronger morphological change
E34 [9] = experiment: as above
E13 [10] = experiment: as above
E21 [11] = experiment: as above
E57 [12] = experiment: as above
FT3469 [13] = experiment: as above
E31 [14] = experiment: as above
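For phenotypic distance (Euclidean, principal components) from DMSO controls in this document: cell Painting imaging in 384-well plates, CellProfiler features reduced to at least 20 principal components, Euclidean distance versus same-plate DMSO vehicle wells (0.1% v/v), median over six images per well.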
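For surviving fraction (nuclei count normalised to DMSO) in this document: nuclei counted by high-content imaging of Hoechst-stained cells in laminin-coated 384-well plates, relative to 0.1% DMSO vehicle wells, with staurosporine as cell-death control.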

Oc1ccc(OCc2ccccc2)cc1 [Monobenzone]
Details	phenotypic distance	surviving fraction
E13 [3], 4.1 nM	–	1.02
E13 [3], 12.3 nM	–	1.11
E13 [3], 37 nM	–	0.916
E13 [3], 111.1 nM	–	1.04
E13 [3], 333.3 nM	–	0.962
E13 [3], 1000 nM	–	1.06
E13 [3], 3000 nM	–	0.738
E13 [10], 4.1 nM	0.73	–
E13 [10], 12.3 nM	0.686	–
E13 [10], 37 nM	0.829	–
E13 [10], 111.1 nM	0.608	–
E13 [10], 333.3 nM	0.563	–
E13 [10], 1000 nM	0.694	–
E13 [10], 3000 nM	1.62	–
E21 [4], 4.1 nM	–	1.01
E21 [4], 12.3 nM	–	1.02
E21 [4], 37 nM	–	0.985
E21 [4], 111.1 nM	–	0.974
E21 [4], 333.3 nM	–	1.01
E21 [4], 1000 nM	–	0.951
E21 [4], 3000 nM	–	0.932
E21 [11], 4.1 nM	0.533	–
E21 [11], 12.3 nM	0.297	–
E21 [11], 37 nM	0.463	–
E21 [11], 111.1 nM	0.324	–
E21 [11], 333.3 nM	0.511	–
E21 [11], 1000 nM	0.562	–
E21 [11], 3000 nM	1.35	–
E28 [1], 4.1 nM	–	1.09
E28 [1], 12.3 nM	–	1.17
E28 [1], 37 nM	–	1.12
E28 [1], 111.1 nM	–	1.02
E28 [1], 333.3 nM	–	1.04
E28 [1], 1000 nM	–	1.04
E28 [1], 3000 nM	–	0.875
E28 [8], 4.1 nM	0.962	–
E28 [8], 12.3 nM	0.487	–
E28 [8], 37 nM	0.802	–
E28 [8], 111.1 nM	0.466	–
E28 [8], 333.3 nM	0.474	–
E28 [8], 1000 nM	0.692	–
E28 [8], 3000 nM	1.42	–
E31 [7], 4.1 nM	–	1.17
E31 [7], 12.3 nM	–	1.1
E31 [7], 37 nM	–	1.24
E31 [7], 111.1 nM	–	1.19
E31 [7], 333.3 nM	–	1.04
E31 [7], 1000 nM	–	1.06
E31 [7], 3000 nM	–	0.603
E31 [14], 4.1 nM	0.6	–
E31 [14], 12.3 nM	0.685	–
E31 [14], 37 nM	0.704	–
E31 [14], 111.1 nM	0.686	–
E31 [14], 333.3 nM	0.51	–
E31 [14], 1000 nM	0.575	–
E31 [14], 3000 nM	1.87	–
E34 [2], 4.1 nM	–	1.13
E34 [2], 12.3 nM	–	0.972
E34 [2], 37 nM	–	0.966
E34 [2], 111.1 nM	–	1.13
E34 [2], 333.3 nM	–	0.984
E34 [2], 1000 nM	–	1.12
E34 [2], 3000 nM	–	1.07
E34 [9], 4.1 nM	0.726	–
E34 [9], 12.3 nM	0.858	–
E34 [9], 37 nM	0.945	–
E34 [9], 111.1 nM	0.661	–
E34 [9], 333.3 nM	0.606	–
E34 [9], 1000 nM	0.28	–
E34 [9], 3000 nM	0.624	–
E57 [5], 4.1 nM	–	1.07
E57 [5], 12.3 nM	–	1.06
E57 [5], 37 nM	–	1.14
E57 [5], 111.1 nM	–	1.05
E57 [5], 333.3 nM	–	0.979
E57 [5], 1000 nM	–	0.963
E57 [5], 3000 nM	–	0.842
E57 [12], 4.1 nM	0.522	–
E57 [12], 12.3 nM	0.58	–
E57 [12], 37 nM	1.19	–
E57 [12], 111.1 nM	1.86	–
E57 [12], 333.3 nM	0.673	–
E57 [12], 1000 nM	0.736	–
E57 [12], 3000 nM	3.91	–
FT3469 [6], 4.1 nM	–	1.35
FT3469 [6], 12.3 nM	–	1.12
FT3469 [6], 37 nM	–	1.14
FT3469 [6], 111.1 nM	–	0.963
FT3469 [6], 333.3 nM	–	1.02
FT3469 [6], 1000 nM	–	0.999
FT3469 [6], 3000 nM	–	0.689
FT3469 [13], 4.1 nM	1.23	–
FT3469 [13], 12.3 nM	0.456	–
FT3469 [13], 37 nM	0.649	–
FT3469 [13], 111.1 nM	0.576	–
FT3469 [13], 333.3 nM	1.04	–
FT3469 [13], 1000 nM	0.884	–
FT3469 [13], 3000 nM	1.07	–
